Values quoted from earlier work as cited in US20220154183A1, “CHMP2A as a Regulator of Natural Killer Cell-Mediated Activity” (The Regents of the University of California, priority 2019, published 2022).

Tested on: HNSCC
Settings: cetuximab as monotherapy

Q: Which patients responding does the source give for Nivolumab here?
A: 20%

Q: Which patients responding does the source give for pembrolizumab here?
A: 20%
